Source: patent US9359196B2, “Antiproliferative compositions comprising curcumin analogs and methods of producing and using same” (The Board of Regents of the University of Oklahoma, priority 2009, dated 2016)

Columns and labels:
H441 cells [1] = experiment: Transmission electron microscopy of treated H441 cells (autophagy); format: cell-based, human; conditions: 24 hour treatment, 1 and 10 μM
Procedure: Transmission Electron Microscopy (TEM): TEM was performed after 24 hour treatment with 1 and 10 μM of compound 1 or compound 29 (CLEFMA). The cells were fixed in 0.1M sodium cacodylate buffer containing 4% paraformaldehyde (PFA) and 2% glutaraldehyde for 4 h at room temperature. The samples were post-fixed in 1% osmium tetroxide for 1.5 h and washed with 0.1M sodium cacodylate buffer, followed by dehydration in an ethanol series of 50%, 60%, 75%, 85%, and 95% for 15 minutes each. The cells were washed twice in 100% Ethanol and passed through a series of epon-araldite (6.2 g epon+4.4 g araldite+12.4 g of dodecenyl succinic anhydride+0.8 g N,N-dimethylbenzylamine) solution in ethanol, [Matsko et al., 2005] before embedding the cells in epon-araldite resin. Finally, 100 nm sections were cut using a microtome, and the sections were placed on glow-discharged 300 mesh Copper grids. The ultrasections were stained with Sato's lead (mixture of calcinated lead citrate, lead nitrate, lead acetate and sodium citrate), and observed by a Hitachi H-7600 Transmission Electron Microscope at 2500× (Oklahoma Medical Research Foundation Imaging and core facility, Oklahoma City).

[2] = test system: colon (HCT-116) cancer cells; experiment: Proliferation of colon cancer HCT-116 cells; format: cell-based
[3] = test system: caspase-3/7 activation in H441 cells; experiment: Caspase-3 immunoblotting and Apo-One caspase-3/7 assay in H441 cells; format: cell-based, human
[4] = Phase solubility analysis with HPβCD; format: physicochemical
Procedure: CLEFMA was synthesized and characterized according to the methods described in Example 1. A phase solubility analysis of CLEFMA was performed according to the published method [Higuchi et al., 1965], and ICs of CLEFMA with HPβCD in the solution phase were prepared as reported previously [Agashe et al., 2010]. Briefly, an excess of CLEFMA was added to 5 ml of HPβCD solution (1 g/ml). The mixture was continuously agitated on a shaker incubator at 25° C. for 72 h. After allowing settling of coarse particulate matter for 6 h, the supernatant was centrifuged at 14,000 rpm for 15 min to obtain a clear supernatant free of any insoluble material. The solution was passed through a sterile 0.22 μm cellulose acetate filter, and the amount of HPβCD-solubilized CLEFMA was estimated spectrophotometrically at 320 nm. The phase solubility diagram was constructed by plotting the estimated CLEFMA concentration against HPβCD concentrations. The stability constant was calculated from the phase diagram using the following equation— K1:1=Slope/[S0(1−Slope)], where S0 is CLEFMA solubility in the absence of HPβCD
The complexation efficiency (CE) was calculated as a product of S0 and K1:1

[5] = test system: PC-3 (prostate cancer) cells; experiment: Cell proliferation study in PC-3 cells; format: cell-based
Procedure: Cell Culture and drug treatment: Human lung adenocarcinoma cell line NCI-H441 (ATCC Number: HTB-174) was obtained from the American Type Culture Collection (Manassas, Va.). H441 cells were maintained at 37° C. with 5% CO2 in McCoy's 5A Medium (Invitrogen, Carlsbad, Calif.) supplemented with 5% heat-inactivated fetal bovine serum (FBS). All media contained gentamicin at 50 μg/ml (GIBCO Laboratories, Grand Island, N.Y.). Other cells lines (PANC-1, MiaPaCa-2 and PC-3) were also similarly maintained, except that the cell culture medium was RPMI 1640 instead of McCoy's.
To evaluate the anti-proliferative activity of synthesized bis(2-fluorobenzylidene)-4-piperidone and its derivatives, the cells were seeded in 96-well flat-bottom tissue culture plates at a density of 10×10^3 cells per well. The cells were allowed to attach and grow overnight. The test compounds were solubilized in dimethyl sulfoxide (DMSO), filtered through 0.2 μm nylon filter and added to cells at 1, 10, 25 and 100 μM concentrations in culture medium supplemented with 5% FBS. […]
Cell Proliferation: The total number of cells after the treatment period was estimated by the hexosaminidase assay. […] The absorbance was measured at 405 nm. […] The data were analyzed as percent of control, where the control wells were treated with equivalent amounts of DMSO alone, and the analyzed data was presented as average±standard error of mean. […]

H441 cells [6] = experiment: Monodansylcadaverine fluorescence microscopy of autophagosomes in H441 cells; format: cell-based, human
Procedure: Monodansylcadaverine (MDC) is an autofluorescent marker for autophagic vacuoles. [Biederbick et al., 1995] It was found the emergence of intense MDC-fluorescence in the treated cells. The fluorescence vanished when the cells were treated with 3-methyl adenine (3-MA). […] [Seglen et al., 1982]

H441 cells [7] = experiment: Cell proliferation assay in H441 cells (hexosaminidase), Example 3; format: cell-based, human
Procedure: Cell proliferation assay: CLEFMA was synthesized and analyzed for purity by the methods detailed elsewhere. Doxorubicin (DOX, GBiosciences, Maryland Heights, Mo.), Paclitexal (PAX, EMD Chemicals, Gibbstown, N.J.), Curcumin (CUR, Sigma, St. Louis, Mo.) and Gemcitabine (GMCB, Acros Organics, Morris Plains, N.J.) were obtained from commercial sources. For cell proliferation assays, the cells were seeded in 96-well, flat-bottom tissue culture plates at a density of 5,000 cells per well. The cells were allowed to adhere and grow overnight, followed by their treatment with drugs (0-20 μM). All drugs were added as solutions in dimethylsulfoxide (DMSO) filtered through 0.2-μm nylon filters; control wells received identical amounts of DMSO without any drugs. The inhibition of cell proliferation was determined after 24-48 h by measuring the decrease in hexosaminidase activity as described by Landegren [Landegren, 1984]; para-nitrophenol-N-acetyl-beta-D-glucosaminide was used as a substrate for the hexosaminidase enzyme. To assess the effect of antioxidants, the cells were simultaneously treated with catalase (CAT, 1000 U), superoxide dismutase (SOD, 500 U) and N-acetylcysteine (NAC, 1 mM). A non-toxic concentration of CAT (Worthington, N.J.), SOD (Sigma, St. Louis, Mo.) and NAC (Enzo Life Sciences, Plymouth Meeting, Pa.) was established in H441 cells prior to these experiments.

SMILES: O=C(O)C=CC(=O)N1CC(=Cc2ccccc2Cl)C(=O)C(=Cc2ccccc2Cl)C1 [Compound 29, 4-[3,5-Bis-(2-chlorobenzylidene)-4-oxo-piperidin-1-yl]-4-oxo-2-butenoic acid]
- change in cellular architecture (TEM) (H441 cells [1]): induced a substantial change in cellular architecture
- control of proliferation [2]: equally potent in controlling proliferation
- caspase-3 activation level (immunoblotting) ([3]; H441 cell lysates): no change in its activation level
- cleavage-based caspase activation (Apo-One caspase-3/7 assay) ([3]; H441 cells): no cleavage-based caspase activation was seen
- stability constant of the complex with HPβCD ([4]; 25° C.): 0.0126 M⁻¹
- complexation efficiency ([4]; product of S0 and K1:1): approximately 0.57
- potency of antiproliferative action [5]: enhanced the potency of antiproliferative action
- autophagosome formation (MDC fluorescence) (H441 cells [6]): appearance of intracellular vacuoles or autophagosomes
- antiproliferative activity versus PAX, GMCB, DOX, CUR (H441 cells [7]; 10 and 20 μM): antiproliferative activity comparable to that shown by these drugs
- effect of co-administered CAT, SOD, NAC on cytotoxicity (H441 cells [7]; CLEFMA 10 and 20 μM): partially rescue CLEFMA-induced cytotoxicity
